Read-outs that look alike come from different tables or passages of the source.
Assays:
[1] = test system: C38 colon adenocarcinoma; settings: optimum dose, i.v., days 21,25,29,33: Taxotere 22 mg/kg/inj; 5-fluorouracil 43.4; combination Taxotere 17.6 + 5-fluorouracil 27.0 (simultaneous)
Source text: (§1) log10 cells killed=T−C(days)/3.32×Td
(§2) The animals are autopsied when sacrificed.

[2] = test system: Colon 51; settings: for Responses TFS (tumor free survivors): on day 122
Procedure: as §1, §2
(§3) The tumor model used to evaluate each drug combination was selected, in general, on the basis of its responsiveness to each of the agents when used as monotherapy. Using i.v. intermittent schedules, full dose response trials were conducted for each single agent and each combination.
(§4) In addition to the parameters described above, the combination toxicity index (CTI) was determined. […] Rep. 66: 1187-1200 (1982). […] It indicates the extent in host toxicity overlap.

[3] = test system: MA13/c mammary adenocarcinoma; settings: optimum dose, i.v.: Taxotere 15 mg/kg/inj days 14,17,20; cyclophosphamide 118 mg/kg day 14; combination Taxotere 7.5 + cyclophosphamide 90.0 mg/kg/inj
Procedure: This efficacy may be quantified, for example, by the log10 cells killed, which is determined according to the following formula:
A product is considered to be active if log10 cells killed is greater than or equal to 0.7. A product is considered to be very active if log10 cells killed is greater than 2.8.
The combination, used at its own maximum tolerated dose, in which each of the constituents will be present at a dose generally not exceeding its maximum tolerated dose, will manifest therapeutic synergy when the log10 cells killed is greater than the value of the log10 cells killed of the best constituent when it is administered alone.
The efficacy of the combinations on solid tumors may be determined experimentally in the following manner:
The animals subjected to the experiment, generally mice, are subcutaneously grafted bilaterally with 30 to 60 mg of a tumor fragment on day 0. The animals bearing tumors are mixed before being subjected to the various treatments and controls. […]
The tumors are measured 2 or 3 times a week until the tumor reaches approximately 2 g, or until the animal dies if this occurs before the tumor reaches 2 g. […]
The antitumor activity is determined in accordance with the different parameters recorded.

[4] = test system: MA13/C; settings: mouse, in vivo
Procedure: as §1, §2, §3, §4

[5] = test system: MA 17/C; settings: mouse, in vivo, iv, 40.3 mg/kg
Procedure: as §1, §2, §3, §4

[6] = CPT-11 trial: CPT-11 PO 42.5 mg/kg/inj 5,9 2x/d, acetocyclopropyl taxotere IV 21.1 days 5,9, combination 21.0 + 11.9 simult.
[7] = cisplatin trial, days 5,12: acetocyclopropyl taxotere 30.0 mg/kg/inj IV, cisplatinum 3.1, combination 13.6 + 2.0 simult.

With `O=c1[nH]cc(F)c(=O)[nH]1` [5-fluorouracil] the log10 cells killed [1] was 1.1.
In the case of `CCc1c2c(nc3ccc(OC(=O)N4CCC(N5CCCCC5)CC4)cc13)-c1cc3c(c(=O)n1C2)COC(=O)[C@]3(O)CC` [CPT-11], the “% bwl loss at nadir” value [2, 6] is reported as 3.7%, the T/C % [2, 6] is reported as 0% and the “day of nadir (body weight loss)” value [2, 6] is reported as “(7) day”. For the same compound, the log cell kill ([2]; CPT-11 trial: CPT-11 PO 42.5 mg/kg/inj 5,9 2x/d, acetocyclopropyl taxotere IV 21.1 days 5,9, combination 21.0 + 11.9 simult., Td = 2 days) was 1.1.
For `N.N.[Cl][Pt][Cl]` [Cisplatinum, cisplatin], the T/C % [2, 7] was 0%, the log cell kill ([2]; cisplatin trial, days 5,12: acetocyclopropyl taxotere 30.0 mg/kg/inj IV, cisplatinum 3.1, combination 13.6 + 2.0 simult., Td = 2.5 days) was 2.7 and the “Responses TFS (tumor free survivors)” value [2, 7] was 0/7. The “Responses TFS (tumor free survivors)” value ([2]; cisplatin trial, days 5,12: acetocyclopropyl taxotere 30.0 mg/kg/inj IV, cisplatinum 3.1, combination 13.6 + 2.0 simult., listed as cisplatin) was “no tumor free survivors”.
Work on `O=P1(N(CCCl)CCCl)NCCCO1` (centres unmarked) [Cylcophosphamide, cyclophosphamide] yielded a log10 cells killed [3] of 1.3.
With `COc1cccc2c1C(=O)c1c(O)c3c(c(O)c1C2=O)C[C@@](O)(C(=O)CO)C[C@@H]3O[C@H]1C[C@H](N)[C@H](O)[C@H](C)O1` [Doxorubicin, doxorubicin] the “Responses CR (Complete Response)” value [4] was 3/5 and the log cell kill [4] was 3.0.
In the case of `CCC1=C[C@@H]2CN(C1)Cc1c([nH]c3ccccc13)[C@@](C(=O)OC)(c1cc3c(cc1OC)N(C)[C@H]1[C@@](O)(C(=O)OC)[C@H](OC(C)=O)[C@]4(CC)C=CCN5CC[C@]31[C@@H]54)C2` [Navelbine], the “Responses TFS (tumor free survivors)” value [5] is reported as 0/6, the T/C % [5] is reported as 0% and the log cell kill [5] is reported as 5.5.
In the case of `CC(=O)O[C@@]12CO[C@@H]1C[C@H](O)[C@@]1(C)C(=O)[C@H](O)C3=C(C)[C@@H](OC(=O)[C@H](O)[C@@H](NC(=O)OC(C)(C)C)c4ccccc4)C[C@@](O)([C@@H](OC(=O)c4ccccc4)[C@H]21)C3(C)C` [Taxotere], the log10 cells killed [3] is reported as 2.8 and the log10 cells killed [1] is reported as 1.4.
